ChEMBL document CHEMBL5149985, “Discovery of cytotoxic natural products from Red Sea sponges: Structure and synthesis” (Eur J Med Chem, 2021)
Each block holds one compound with its values, some of them ahead of it.

How the values were obtained:
MCF7 [1] = assay: Anticancer activity against human MCF7 cells assessed as inhibition of cell growth by MTT assay; type: functional, cell-based
HCT-116 [2] = assay: cells; conditions: Homo sapiens
Description: Anticancer activity against human HCT-116 cells assessed as inhibition of cell growth by MTT assay

HepG2 [3] = assay: cells; conditions: Homo sapiens
Description: Anticancer activity against human HepG2 cells assessed as inhibition of cell growth by MTT assay

MDA-MB-231 [4] = assay: Anticancer activity against human MDA-MB-231 cells assessed as cell viability measured after 24 hrs by MTT assay; type: functional, cell-based; conditions: MDA-MB-231, 24 h
MCF7 [5] = assay: Anticancer activity against human MCF7 cells assessed as inhibition of cell growth incubated for 72 hrs by MTT assay; type: functional, cell-based; conditions: MCF7, 72 h
MDA-MB-231 [6] = assay: Anticancer activity against human MDA-MB-231 cells assessed as inhibition of cell growth incubated for 72 hrs by MTT assay; type: functional, cell-based; conditions: MDA-MB-231, 72 h
[7] = Inhibition of actin (unknown origin) polymerization at 100 nM incubated for 20 mins in presence of ATP by ELISA analysis relative to control; conditions: Homo sapiens
Homo sapiens = species on record: Homo sapiens; assay: Inhibition of actin (unknown origin) polymerization at 1 uM incubated for 20 mins in presence of ATP by ELISA analysis relative to control
[8] = Inhibition of actin (unknown origin) polymerization incubated for 20 mins in presence of ATP by ELISA analysis; design: species or system Homo sapiens
MCF7 [9] = assay: Anticancer activity against human MCF7 cells assessed as inhibition of cell growth; type: functional, cell-based
HepG2 [10] = assay: Anticancer activity against human HepG2 cells assessed as inhibition of cell growth; type: functional, cell-based
P388 = assay: Anticancer activity against mouse P388 cells assessed as cell growth inhibition; type: functional, cell-based
A549 = assay: Anticancer activity against human A549 cells assessed as cell growth inhibition; type: functional, cell-based
HT-29 = assay: Anticancer activity against human HT-29 cells assessed as cell growth inhibition; type: functional, cell-based
MCF7 [11] = assay: Anticancer activity against human MCF7 cells assessed as inhibition of cell growth incubated for 72 hrs by SRB assay; type: functional, cell-based; conditions: MCF7, 72 h
HepG2 [12] = assay: Anticancer activity against human HepG2 cells assessed as inhibition of cell growth incubated for 72 hrs by SRB assay; type: functional, cell-based; conditions: HepG2, 72 h
HCT-116 [13] = assay: Anticancer activity against human HCT-116 cells assessed as inhibition of cell growth incubated for 72 hrs by SRB assay; type: functional, cell-based; conditions: HCT-116, 72 h
BT-474 = assay: Anticancer activity against human BT-474 cells assessed as cell growth inhibition incubated for 48 hrs by MTT assay; type: functional, cell-based; conditions: BT-474, 48 h

IC50 (MCF7 [1]): 0.004 µM
IC50 (HCT-116 [2]): 0.0017 µM
IC50 (HepG2 [3]): 0.0033 µM
Structure (SMILES): CC[C@@]1(C)CCC[C@]2(C)[C@H]3C[C@H](OC(C)=O)[C@]4(C)[C@H]5CO[C@](C)(O)C5CC[C@H]4[C@]3(C)CC[C@@H]12 (stereo not given in full)

IC50 (MCF7 [1]): 0.0029 µM
IC50 (HCT-116 [2]): 0.0029 µM
IC50 (HepG2 [3]): 0.0038 µM
Structure (SMILES): CC[C@@]1(C)CCC[C@]2(C)[C@H]3C[C@H](OC(C)=O)[C@]45C[C@@H](O)[C@H]4C(C(C)=O)=CC[C@H]5[C@]3(C)CC[C@@H]12

IC50 (MDA-MB-231 [4]): 18 µM
Structure (SMILES): COC1=C(Br)[C@H]2OC(=O)C[C@]2(O)C=C1Br

Structure (SMILES): C/C1=C/C(=O)O[C@@H]2C[C@@H](CC[C@H](C)/C=C\C=C\CC1)O[C@@](O)([C@@H]1CSC(=O)N1)C2 [LATRUNCULIN A]
IC50 (MCF7 [5]): 0.48 µM
IC50 (MDA-MB-231 [6]): 4.19 µM
inhibition [7]: 30%
inhibition (Homo sapiens): 70%
IC50 [8]: 0.284 µM

IC50 (MCF7 [9]): 29.8 µM
IC50 (HepG2 [10]): 21.3 µM
Structure (SMILES): CCCCCCCC/C=C\CCCCCCC[C@@H](O)C(=O)N[C@@H](CO)[C@H](O)[C@H](O)CCCCCCCCCCCCCCCCCCC

Structure (SMILES): COC(=O)[C@@H](C)[C@@H]1CC[C@](C)(CCC(=O)C(C)(C)CCCC(C)=O)OO1 [DIACARPEROXIDE B]
IC50 (P388): ≥ 1 µg/mL
IC50 (A549): ≥ 1 µg/mL
IC50 (HT-29): ≥ 1 µg/mL

IC50 (MCF7 [11]): 12.7 µM
IC50 (HepG2 [12]): 9.6 µM
IC50 (HCT-116 [13]): 3.5 µM
Structure (SMILES): CC(=O)O[C@H]1C[C@H]2[C@]3(C)CC[C@H]4C(C)(C)CCC[C@]4(C)[C@H]3C[C@@H](O)[C@]2(C)C2=C1C(O)OC2=O (stereo not given in full)

IC50 (MCF7 [1]): 0.0046 µM
IC50 (HCT-116 [2]): 0.0027 µM
IC50 (HepG2 [3]): 0.0026 µM
Structure (SMILES): CC(=O)O[C@H]1C[C@H]2[C@@](C)(CCC3C(C)(C)CCC[C@@]32C)[C@@H]2C[C@@H](OC(C)=O)C(C(C)=O)=C[C@@]12C (stereo not given in full)

IC50 (BT-474): 52.5 µM
Structure (SMILES): C[C@@H]1CN2CCC[C@H]3CCCCCC[C@H]4CCN5CCC[C@@](O)(CCCCCC[C@@H]1O[C@H]32)[C@H]5O4 [XESTOSPONGIN B]

IC50 (MCF7 [11]): 36 µM
IC50 (HepG2 [12]): 23.4 µM
IC50 (HCT-116 [13]): 27.1 µM
Structure (SMILES): CC1(C)CCC[C@]2(C)[C@H]3C[C@@H](O)[C@]4(C)[C@@H](C=O)C(C=O)=CC[C@H]4[C@]3(C)CC[C@@H]12

IC50 (MCF7 [9]): 11.7 µM
Structure (SMILES): C#C/C=C\CCCCC#CC#CCCCCCC#CCO

IC50 (MCF7 [9]): > 200 µM
IC50 (HepG2 [10]): 107 µM
Structure (SMILES): CCCCCCCCCCCCC(=O)N[C@@H](CO)[C@H](O)[C@H](O)CCCCCCCCCC

Structure (SMILES): CO[C@]1([C@@H]2CSC(=O)N2C2CCCC2)C[C@H]2C[C@@H](CC[C@H](C)/C=C\C=C\CC/C(C)=C\C(=O)O2)O1
IC50 (MCF7 [5]): 5.3 µM
IC50 (MDA-MB-231 [6]): 5.07 µM
inhibition [7]: 20%
inhibition (Homo sapiens): 49%
IC50 [8]: 1.05 µM

IC50 (BT-474): 29.5 µM
Structure (SMILES): [O-][N+]12CCC[C@]3(O)CCCCCC[C@@H]4CCN5CCC[C@@H](CCCCCC[C@H](CC1)O[C@@H]32)[C@@H]5O4 (stereo not given in full)

Structure (SMILES): CCN1C(=O)SC[C@H]1[C@@]1(O)C[C@H]2C[C@@H](CC[C@H](C)/C=C\C=C\CC/C(C)=C\C(=O)O2)O1
IC50 (MCF7 [5]): 0.95 µM
IC50 (MDA-MB-231 [6]): 7.19 µM
inhibition [7]: 31%
inhibition (Homo sapiens): 70%
IC50 [8]: 0.283 µM

Structure (SMILES): CO[C@]1([C@@H]2CSC(=O)N2Cc2ccccc2)C[C@H]2C[C@@H](CC[C@H](C)/C=C\C=C\CC/C(C)=C\C(=O)O2)O1
IC50 (MCF7 [5]): 0.78 µM
IC50 (MDA-MB-231 [6]): 6.82 µM
inhibition [7]: 33%
inhibition (Homo sapiens): 67%
IC50 [8]: 0.333 µM

Structure (SMILES): O[C@]12CCCCCC[C@@H]3CCN4CCC[C@@H](CCCCCC[C@@H]5CCN(CCC1)[C@H]2O5)[C@@H]4O3
IC50 (BT-474): 9.3 µM

IC50 (MCF7 [11]): 3.3 µM
IC50 (HepG2 [12]): 1.7 µM
IC50 (HCT-116 [13]): 3.4 µM
Structure (SMILES): CC1(C)CCC[C@]2(C)[C@H]3C[C@@H](O)[C@]4(C)[C@H](C=O)C(C=O)=CC[C@H]4[C@]3(C)CC[C@@H]12

IC50 (BT-474): 35.6 µM
Structure (SMILES): [O-][N+]12CCC[C@]3(O)CCCCCC[C@@H]4CCN5CCC[C@](O)(CCCCCC[C@H](CC1)O[C@@H]32)[C@@H]5O4 (stereo not given in full)

Structure (SMILES): C/C1=C/C(=O)O[C@@H]2C[C@@H](CC[C@H](C)/C=C\C=C\CC1)O[C@@](OC(=O)c1ccccc1)([C@@H]1CSC(=O)N1)C2
IC50 (MCF7 [5]): 0.52 µM
IC50 (MDA-MB-231 [6]): 5.05 µM
inhibition [7]: 23%
inhibition (Homo sapiens): 67%
IC50 [8]: 0.466 µM

IC50 (MCF7 [11]): 40.3 µM
IC50 (HepG2 [12]): 42.5 µM
IC50 (HCT-116 [13]): 22.5 µM
Structure (SMILES): CO[C@H]1C[C@H]2[C@]3(C)CC[C@H]4C(C)(C)CCC[C@]4(C)[C@H]3C[C@@H](OC(C)=O)[C@]2(C)C2=C1[C@@H](O)OC2=O

IC50 (HepG2 [10]): 16.3 µM
Structure (SMILES): C/C1=C/C(=O)O[C@@H]2C[C@@H](CC[C@H](C)/C=C\CC1)O[C@@](O)([C@@H]1CS(=O)(=O)C(=O)N1O)C2
